Measurements published in patent US20250230147A1, “LACTAMS AS CBL-B INHIBITORS” (Genentech, Inc., priority 2021, published 2025).

Experiments:
c-Cbl = c-Cbl (Homo sapiens (Human), UniProt P22681); assay: C-Cbl LCK Ub TR-FRET assay (c-cbl Lck HTRF); type: biochemical; conditions: for (fold-selectivity): C-cbl Lck HTRF IC50 relative to Cbl-b Lck HTRF IC50
Procedure, shortened: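 Signal is read once the detection mix has stood 20 min at ambient temperature. Curves are anchored by DMSO as maximum and by omission of LCK as minimum.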

Cbl-b = Cbl-b (Homo sapiens (Human), UniProt Q13191); assay: Cbl-b LCK Ub TR-FRET assay (Cbl-b Lck HTRF); type: biochemical
Chain of Cbl-b (Q13191 40-426): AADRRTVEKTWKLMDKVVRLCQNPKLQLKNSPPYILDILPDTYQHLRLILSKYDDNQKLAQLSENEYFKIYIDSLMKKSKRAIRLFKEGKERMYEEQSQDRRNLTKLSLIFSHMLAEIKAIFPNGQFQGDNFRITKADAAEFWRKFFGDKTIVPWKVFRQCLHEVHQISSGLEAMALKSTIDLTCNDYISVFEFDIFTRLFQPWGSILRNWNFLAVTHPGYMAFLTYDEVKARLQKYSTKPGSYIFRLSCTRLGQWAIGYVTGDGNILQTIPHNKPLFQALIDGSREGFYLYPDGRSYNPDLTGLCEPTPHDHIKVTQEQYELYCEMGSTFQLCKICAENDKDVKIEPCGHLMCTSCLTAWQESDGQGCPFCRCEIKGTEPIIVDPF
Procedure, shortened: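 Biotin-Cbl-b preincubated with compound (10-point 3-fold series) 60 min, then His-LCK with 1 mM ATP (2× mixture) added for 90 min at room temperature. Ubiquitination detected by TR-FRET using HA-ubiquitin/UBE2D2 adduct, anti-HA-D2 and streptavidin-Eu; IC50 normalised to no-LCK and DMSO controls.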

Chain of c-Cbl (P22681 47-435): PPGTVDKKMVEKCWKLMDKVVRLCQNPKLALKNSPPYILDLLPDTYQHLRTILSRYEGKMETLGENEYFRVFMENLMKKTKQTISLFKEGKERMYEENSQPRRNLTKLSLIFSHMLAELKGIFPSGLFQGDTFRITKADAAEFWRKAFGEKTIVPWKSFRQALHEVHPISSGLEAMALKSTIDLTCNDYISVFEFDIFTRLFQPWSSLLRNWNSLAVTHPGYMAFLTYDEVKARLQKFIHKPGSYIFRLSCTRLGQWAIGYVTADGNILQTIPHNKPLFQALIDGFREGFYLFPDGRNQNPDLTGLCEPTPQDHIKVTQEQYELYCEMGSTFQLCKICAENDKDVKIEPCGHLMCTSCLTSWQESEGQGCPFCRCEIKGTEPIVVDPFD

| IC50 (c-Cbl) | (fold-selectivity) (c-Cbl) | IC50 (Cbl-b) | Compound |
| --- | --- | --- | --- |
| 23 nM | (1.0x) | 23 nM | Cn1cnnc1[C@@H](F)C1(c2cccc(NC(=O)c3cc(CN4CC(C)(CO)C4)cc(C4CC4)n3)c2)CC(F)(F)C1 [Compound 423, (S)-6-cyclopropyl-N-(3-(3,3-difluoro-1-(fluoro(4-methyl-4H-1,2,4-triazol-3-yl)methyl)cyclobutyl)phenyl)-4-((3-(hydroxymethyl)-3-methylazetidin-1-yl)methyl)picolinamide] |
| 31 nM | (0.73x) | 42 nM | C[C@@H]1CN(Cc2cc3c(c(C(F)(F)F)c2)CN(c2cccc(C4(Cc5nncn5C)CC(F)(F)C4)c2)C3=O)CCN1 [Compound 424, (R)-2-(3-(3,3-difluoro-1-((4-methyl-4H-1,2,4-triazol-3-yl)methyl)cyclobutyl)phenyl)-6-((3-methylpiperazin-1-yl)methyl)-4-(trifluoromethyl)isoindolin-1-one] |
| 22 nM | (0.68x) | 32 nM | C[C@H]1CN(Cc2cc3c(c(C(F)(F)F)c2)CN(c2cccc(C4(Cc5nncn5C)CC(F)(F)C4)c2)C3=O)CCN1 [Compound 425, (S)-2-(3-(3,3-difluoro-1-((4-methyl-4H-1,2,4-triazol-3-yl)methyl)cyclobutyl)phenyl)-6-((3-methylpiperazin-1-yl)methyl)-4-(trifluoromethyl)isoindolin-1-one] |
| 26 nM | (0.73x) | 35 nM | CC[C@@H]1CN(Cc2cc3c(c(C(F)(F)F)c2)CN(c2cccc(C4(Cc5nncn5C)CC(F)(F)C4)c2)C3=O)CCN1 [Compound 426, (R)-2-(3-(3,3-difluoro-1-((4-methyl-4H-1,2,4-triazol-3-yl)methyl)cyclobutyl)phenyl)-6-((3-ethylpiperazin-1-yl)methyl)-4-(trifluoromethyl)isoindolin-1-one] |
| 16 nM | (0.76x) | 21 nM | CC[C@H]1CN(Cc2cc3c(c(C(F)(F)F)c2)CN(c2cccc(C4(Cc5nncn5C)CC(F)(F)C4)c2)C3=O)CCN1 [Compound 427, (S)-2-(3-(3,3-difluoro-1-((4-methyl-4H-1,2,4-triazol-3-yl)methyl)cyclobutyl)phenyl)-6-((3-ethylpiperazin-1-yl)methyl)-4-(trifluoromethyl)isoindolin-1-one] |
| 10 nM | (0.74x) | 14 nM | CC(C)[C@@H]1CN(Cc2cc3c(c(C(F)(F)F)c2)CN(c2cccc(C4(Cc5nncn5C)CC(F)(F)C4)c2)C3=O)CCN1 [Compound 428, (R)-2-(3-(3,3-difluoro-1-((4-methyl-4H-1,2,4-triazol-3-yl)methyl)cyclobutyl)phenyl)-6-((3-isopropylpiperazin-1-yl)methyl)-4-(trifluoromethyl)isoindolin-1-one] |
| 20 nM | (0.76x) | 26 nM | CC(C)[C@H]1CN(Cc2cc3c(c(C(F)(F)F)c2)CN(c2cccc(C4(Cc5nncn5C)CC(F)(F)C4)c2)C3=O)CCN1 [Compound 429, (S)-2-(3-(3,3-difluoro-1-((4-methyl-4H-1,2,4-triazol-3-yl)methyl)cyclobutyl)phenyl)-6-((3-isopropylpiperazin-1-yl)methyl)-4-(trifluoromethyl)isoindolin-1-one] |
| 35 nM | (0.80x) | 43 nM | Cn1cnnc1CC1(c2cccc(N3Cc4c(cc(CN5CCN[C@H](C6CC6)C5)cc4C(F)(F)F)C3=O)c2)CC(F)(F)C1 [Compound 430, (R)-6-((3-cyclopropylpiperazin-1-yl)methyl)-2-(3-(3,3-difluoro-1-((4-methyl-4H-1,2,4-triazol-3-yl)methyl)cyclobutyl)phenyl)-4-(trifluoromethyl)isoindolin-1-one] |
| 42 nM | (0.87x) | 48 nM | Cn1cnnc1CC1(c2cccc(N3Cc4c(cc(CN5CCN[C@@H](C6CC6)C5)cc4C(F)(F)F)C3=O)c2)CC(F)(F)C1 [Compound 431, (S)-6-((3-cyclopropylpiperazin-1-yl)methyl)-2-(3-(3,3-difluoro-1-((4-methyl-4H-1,2,4-triazol-3-yl)methyl)cyclobutyl)phenyl)-4-(trifluoromethyl)isoindolin-1-one] |
| 13 nM | (0.78x) | 17 nM | CC(C)[C@H]1CN(C)CCN1Cc1cc2c(c(C(F)(F)F)c1)CN(c1cccc(C3(C(F)(F)c4nncn4C)CC(F)(F)C3)c1)C2=O [Compound 432, (S)-2-(3-(1-(difluoro(4-methyl-4H-1,2,4-triazol-3-yl)methyl)-3,3-difluorocyclobutyl)phenyl)-6-((2-isopropyl-4-methylpiperazin-1-yl)methyl)-4-(trifluoromethyl)isoindolin-1-one] |
| 120 nM | (1.3x) | 94 nM | CN1CCN(Cc2cc3c(c(C(F)(F)F)c2)CN(c2cccc(C4(Cc5nncn5C)CC(F)(F)C4)c2)C3=O)[C@H](C2CC2)C1 [Compound 433, (R)-6-((2-cyclopropyl-4-methylpiperazin-1-yl)methyl)-2-(3-(3,3-difluoro-1-((4-methyl-4H-1,2,4-triazol-3-yl)methyl)cyclobutyl)phenyl)-4-(trifluoromethyl)isoindolin-1-one] |
| 17 nM | (0.95x) | 18 nM | CC[C@H]1CN(C)CCN1Cc1cc2c(c(C(F)(F)F)c1)CN(c1cccc(C3(Cc4nncn4C)CC(F)(F)C3)c1)C2=O [Compound 434, (S)-2-(3-(3,3-difluoro-1-((4-methyl-4H-1,2,4-triazol-3-yl)methyl)cyclobutyl)phenyl)-6-((2-ethyl-4-methylpiperazin-1-yl)methyl)-4-(trifluoromethyl)isoindolin-1-one] |
| 19 nM | (1.0x) | 19 nM | Cn1cnnc1CC1(c2cccc(N3Cc4c(cc([C@H](N)C5CC5)cc4C(F)(F)F)C3=O)c2)CC(F)(F)C1 [Compound 435, (R)-6-(amino(cyclopropyl)methyl)-2-(3-(3,3-difluoro-1-((4-methyl-4H-1,2,4-triazol-3-yl)methyl)cyclobutyl)phenyl)-4-(trifluoromethyl)isoindolin-1-one] |
| 32 nM | (0.97x) | 34 nM | Cn1cnnc1CC1(c2cccc(N3Cc4c(cc(CN5CCNC[C@H]5C5CC5)cc4C(F)(F)F)C3=O)c2)CC(F)(F)C1 [Compound 436, (R)-6-((2-cyclopropylpiperazin-1-yl)methyl)-2-(3-(3,3-difluoro-1-((4-methyl-4H-1,2,4-triazol-3-yl)methyl)cyclobutyl)phenyl)-4-(trifluoromethyl)isoindolin-1-one] |
| 900 nM | (0.97x) | 62 nM | Cn1cnnc1CC1(c2cccc(N3Cc4c(cc(CN5CCNCC5)cc4C(F)(F)F)C3=O)c2)CC(F)(F)C1 [Compound 437, 2-(3-(3,3-difluoro-1-((4-methyl-4H-1,2,4-triazol-3-yl)methyl)cyclobutyl)phenyl)-6-(piperazin-1-ylmethyl)-4-(trifluoromethyl)isoindolin-1-one] |
